In ChEMBL document CHEMBL5113550, “Optimization of Pyrimidine Compounds as Potent JAK1 Inhibitors and the Discovery of R507 as a Clinical Candidate” (ACS Med Chem Lett, 2022):

What was measured:
[1] = Inhibition of IL-2 stimulated IFN-gamma production in BALB/c mouse at 40 mg/kg, po pretreated for 30 mins followed by IL-2 stimulation and measured after 4 hrs by ELISA; format: functional; details: time 4.5 hrs
[2] = Inhibition of IL-2 stimulated IFN-gamma production in BALB/c mouse at 5 mg/kg, po pretreated for 30 mins followed by IL-2 stimulation and measured after 4 hrs by ELISA; format: functional; details: time 4.5 hrs
Cytochrome P450 3A4 [3] = biological target: T1, Cytochrome P450 3A4 (Homo sapiens, UniProt P08684); assay: Inhibition of CYP3A4 (unknown origin) in presence of NADPH; format: ADME
Cytochrome P450 3A4 [4] = biological target: T1, Cytochrome P450 3A4; assay: Inhibition of CYP3A4 (unknown origin) in absence of NADPH; format: ADME
[5] = biological target: T2, Tyrosine-protein kinase JAK2 (Homo sapiens, UniProt O60674); assay: Inhibition of JAK2 signaling pathway in human CHEP cells assessed as inhibition of EPO-induced cell survival preincubated for 1 hr followed by EPO addition and measured after 48 hrs by CellTiter-Glo luminescent assay; format: toxicity, cell-based
[6] = biological target: T3, Tyrosine-protein kinase JAK3 (Homo sapiens, UniProt P52333); assay: Inhibition of human recombinant GST-tagged JAK3 catalytic domain (781 to 1124 residues) expressed in baculovirus expression system by Z'-lyte assay
T3 sequence (P52333 whole entry): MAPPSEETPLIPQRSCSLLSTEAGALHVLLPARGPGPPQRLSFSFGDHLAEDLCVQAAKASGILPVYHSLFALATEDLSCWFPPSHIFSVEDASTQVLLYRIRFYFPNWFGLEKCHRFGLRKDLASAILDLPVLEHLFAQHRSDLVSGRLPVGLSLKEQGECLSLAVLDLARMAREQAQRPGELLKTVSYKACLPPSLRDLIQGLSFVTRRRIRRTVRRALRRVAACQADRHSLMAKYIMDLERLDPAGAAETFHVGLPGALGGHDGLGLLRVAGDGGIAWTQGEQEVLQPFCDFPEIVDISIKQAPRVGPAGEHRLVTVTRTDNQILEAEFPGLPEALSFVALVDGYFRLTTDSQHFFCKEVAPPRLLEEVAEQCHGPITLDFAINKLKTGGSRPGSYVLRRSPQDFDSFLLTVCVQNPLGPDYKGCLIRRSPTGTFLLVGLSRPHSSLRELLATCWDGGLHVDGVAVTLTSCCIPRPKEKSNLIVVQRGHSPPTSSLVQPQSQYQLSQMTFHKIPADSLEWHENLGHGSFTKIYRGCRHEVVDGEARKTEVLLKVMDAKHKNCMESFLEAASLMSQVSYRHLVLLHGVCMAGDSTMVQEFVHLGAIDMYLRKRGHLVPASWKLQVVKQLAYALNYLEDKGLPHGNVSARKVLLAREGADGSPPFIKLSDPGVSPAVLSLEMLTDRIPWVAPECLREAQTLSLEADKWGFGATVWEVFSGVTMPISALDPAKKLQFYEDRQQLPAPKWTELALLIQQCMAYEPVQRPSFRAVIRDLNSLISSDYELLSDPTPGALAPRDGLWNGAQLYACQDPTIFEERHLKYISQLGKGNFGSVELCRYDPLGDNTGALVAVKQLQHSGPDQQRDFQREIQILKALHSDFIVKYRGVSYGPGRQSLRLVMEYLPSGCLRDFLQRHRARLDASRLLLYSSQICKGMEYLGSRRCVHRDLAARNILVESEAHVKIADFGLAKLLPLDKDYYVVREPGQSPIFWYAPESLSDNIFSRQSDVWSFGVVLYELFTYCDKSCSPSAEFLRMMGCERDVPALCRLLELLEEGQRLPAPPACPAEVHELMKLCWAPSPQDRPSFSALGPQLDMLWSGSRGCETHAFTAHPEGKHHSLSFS

[7] = Inhibition of IL-2 stimulated IFN-gamma production in BALB/c mouse at 2.5 mg/kg, po pretreated for 30 mins followed by IL-2 stimulation and measured after 4 hrs by ELISA; format: functional; details: time 4.5 hrs
[8] = Clearance in Sprague-Dawley rat 1 mg/kg, iv; format: ADME, organism-based; details: in vivo
[9] = biological target: T2, Tyrosine-protein kinase JAK2; assay: Inhibition of human recombinant GST-tagged JAK2 catalytic domain (809 to 1153 residues) expressed in baculovirus expression system by Z'-lyte assay; format: toxicity
JAK2/JAK1 = JAK2/JAK1 (Homo sapiens, UniProt O60674+P23458); assay: Inhibition of JAK1/JAK2 signaling pathway in human U-937 cells assessed as reduction of IFN-gamma induced ICAM1 expression; format: cell-based
JAK3/JAK1 [10] = biological target: T4, JAK3/JAK1 (Homo sapiens, UniProt P23458+P52333); assay: Inhibition of JAK1/JAK3 signaling pathway in human primary T-cells assessed as reduction of IL-2 induced cell proliferation; format: cell-based
[11] = biological target: T2, Tyrosine-protein kinase JAK2; assay: Inhibition of JAK2 signaling pathway in human UKE-1 cells assessed as reduction of cell proliferation; format: toxicity, cell-based
JAK3/JAK1 [12] = biological target: T4, JAK3/JAK1; assay: Inhibition of JAK1/JAK3 signaling pathway in human whole blood assessed as reduction of IL-2 induced STAT5 phosphorylation; format: tissue-based
[13] = Inhibition of IL-2 stimulated IFN-gamma production in BALB/c mouse at 10 mg/kg, po pretreated for 30 mins followed by IL-2 stimulation and measured after 4 hrs by ELISA; format: functional; details: time 4.5 hrs
[14] = biological target: Non-receptor tyrosine-protein kinase TYK2 (Homo sapiens, UniProt P29597); assay: Inhibition of human recombinant N-terminal GST-tagged TYK2 (833 to 1187 residues) expressed in baculovirus expression system by Z'-lyte assay
JAK3/JAK1 [15] = biological target: T4, JAK3/JAK1; assay: Inhibition of JAK1/JAK3 in human primary T-cells assessed as reduction of IL-2 stimulated STAT5 phosphorylation preincubated for 1 hr followed by IL-2 stimulation for 15 mins by FACS method; format: cell-based, T-cell
JAK2/TYK2 = JAK2/TYK2 (Homo sapiens, UniProt O60674+P29597); assay: Inhibition of JAK2/TYK2 signaling pathway in human primary T-cells assessed as reduction of IL-12 induced STAT4 phosphorylation; format: cell-based, T-cell
[16] = Oral bioavailability in Sprague-Dawley rat 5 mg/kg; format: ADME, organism-based; details: in vivo
JAK1/TYK2 = JAK1/TYK2 (Homo sapiens, UniProt P23458+P29597); assay: Inhibition of JAK1/TYK2 signaling pathway in human primary T-cells assessed as reduction of IFN-alpha induced STAT1 phosphorylation; format: cell-based, T-cell
Cytochrome P450 1A2 = biological target: T5, Cytochrome P450 1A2 (Homo sapiens, UniProt P05177); assay: Inhibition of CYP1A2 (unknown origin); format: ADME
T5 sequence (P05177 whole entry): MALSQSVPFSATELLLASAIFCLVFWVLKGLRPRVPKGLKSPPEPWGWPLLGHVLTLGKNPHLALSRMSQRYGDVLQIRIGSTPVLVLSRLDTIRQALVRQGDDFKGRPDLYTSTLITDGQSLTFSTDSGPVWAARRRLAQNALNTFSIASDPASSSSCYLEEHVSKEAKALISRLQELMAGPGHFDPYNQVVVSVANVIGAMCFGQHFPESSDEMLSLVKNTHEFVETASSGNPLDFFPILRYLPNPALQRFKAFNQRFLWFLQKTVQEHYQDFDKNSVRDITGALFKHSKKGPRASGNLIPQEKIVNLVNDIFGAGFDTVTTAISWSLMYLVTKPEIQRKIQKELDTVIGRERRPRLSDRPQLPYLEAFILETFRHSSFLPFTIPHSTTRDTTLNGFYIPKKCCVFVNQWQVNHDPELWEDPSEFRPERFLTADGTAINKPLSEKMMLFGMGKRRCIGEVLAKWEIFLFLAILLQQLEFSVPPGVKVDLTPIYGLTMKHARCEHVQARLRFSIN

[17] = biological target: Tyrosine-protein kinase JAK1 (Homo sapiens, UniProt P23458); assay: Inhibition of human recombinant GST-tagged JAK1 catalytic domain (866 to 1154 residues) expressed in baculovirus expression system by Z'-lyte assay
[18] = Inhibition of IL-2 stimulated IFN-gamma production in BALB/c mouse at 20 mg/kg, po pretreated for 30 mins followed by IL-2 stimulation and measured after 4 hrs by ELISA; format: functional; details: time 4.5 hrs
[19] = biological target: Tyrosine-protein kinase SYK (Homo sapiens, UniProt P43405); assay: Inhibition of SYK (unknown origin) assessed as reduction of IgM-stimulated ERK phosphorylation by Cell-based assay
Homo sapiens = organism: Homo sapiens; assay: Selectivity ratio of IC50 for inhibition of JAK2 signaling pathway in EPO-stimulated human CHEP cells to IC50 for inhibition of JAK1/JAK3 in human primary T-cells assessed as reduction of IL-2 stimulated STAT5 phosphorylation
[20] = Plasma protein binding in rat; format: ADME, cell-free; details: read-out: PPB (converted)
[21] = Plasma protein binding in human; format: ADME, cell-free; details: read-out: PPB (converted)

T2 sequence (O60674 whole entry, the tested form may be a part): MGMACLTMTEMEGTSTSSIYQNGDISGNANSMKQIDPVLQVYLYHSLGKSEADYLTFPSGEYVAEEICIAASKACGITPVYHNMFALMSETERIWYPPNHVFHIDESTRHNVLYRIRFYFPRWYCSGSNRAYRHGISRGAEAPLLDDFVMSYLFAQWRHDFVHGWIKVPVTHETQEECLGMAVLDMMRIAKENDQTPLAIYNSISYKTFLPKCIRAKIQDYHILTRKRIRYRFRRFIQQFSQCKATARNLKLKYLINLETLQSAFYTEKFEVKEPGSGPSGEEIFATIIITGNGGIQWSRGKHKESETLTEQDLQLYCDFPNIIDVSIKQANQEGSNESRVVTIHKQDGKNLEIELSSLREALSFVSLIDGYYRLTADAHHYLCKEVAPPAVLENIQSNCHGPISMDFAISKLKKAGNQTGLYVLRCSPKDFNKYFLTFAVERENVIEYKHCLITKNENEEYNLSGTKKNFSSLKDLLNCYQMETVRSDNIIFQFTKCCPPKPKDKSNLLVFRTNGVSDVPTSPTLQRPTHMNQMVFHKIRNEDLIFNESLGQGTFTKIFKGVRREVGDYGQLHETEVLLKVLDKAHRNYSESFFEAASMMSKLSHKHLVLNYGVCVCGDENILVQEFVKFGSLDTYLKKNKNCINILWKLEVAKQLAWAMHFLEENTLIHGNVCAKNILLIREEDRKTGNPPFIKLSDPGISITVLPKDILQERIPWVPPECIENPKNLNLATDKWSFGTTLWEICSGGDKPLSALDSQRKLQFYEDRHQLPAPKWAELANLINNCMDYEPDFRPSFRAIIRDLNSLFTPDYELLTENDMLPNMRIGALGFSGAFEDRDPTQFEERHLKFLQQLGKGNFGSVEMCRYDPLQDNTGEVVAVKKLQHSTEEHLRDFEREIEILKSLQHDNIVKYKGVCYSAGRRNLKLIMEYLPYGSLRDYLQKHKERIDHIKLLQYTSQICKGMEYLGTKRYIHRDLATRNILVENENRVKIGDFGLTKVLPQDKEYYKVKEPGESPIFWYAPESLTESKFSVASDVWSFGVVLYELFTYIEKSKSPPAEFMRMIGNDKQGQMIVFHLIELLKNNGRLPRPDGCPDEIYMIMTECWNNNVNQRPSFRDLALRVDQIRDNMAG
T1 sequence (P08684 whole entry): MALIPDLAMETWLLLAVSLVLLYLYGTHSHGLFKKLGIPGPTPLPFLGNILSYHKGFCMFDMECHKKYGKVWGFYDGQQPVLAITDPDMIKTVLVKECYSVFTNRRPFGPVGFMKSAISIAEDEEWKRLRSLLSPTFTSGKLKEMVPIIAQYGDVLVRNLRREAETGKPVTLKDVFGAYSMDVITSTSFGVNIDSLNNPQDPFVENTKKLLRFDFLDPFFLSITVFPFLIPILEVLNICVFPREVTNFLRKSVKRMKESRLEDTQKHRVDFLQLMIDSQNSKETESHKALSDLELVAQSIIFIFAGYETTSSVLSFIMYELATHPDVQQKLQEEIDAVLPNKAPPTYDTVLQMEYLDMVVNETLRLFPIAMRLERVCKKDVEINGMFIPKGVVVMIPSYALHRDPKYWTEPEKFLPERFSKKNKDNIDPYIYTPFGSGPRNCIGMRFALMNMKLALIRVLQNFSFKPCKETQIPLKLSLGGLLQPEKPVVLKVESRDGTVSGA
T4 sequence (P23458 whole entry, one chain of several): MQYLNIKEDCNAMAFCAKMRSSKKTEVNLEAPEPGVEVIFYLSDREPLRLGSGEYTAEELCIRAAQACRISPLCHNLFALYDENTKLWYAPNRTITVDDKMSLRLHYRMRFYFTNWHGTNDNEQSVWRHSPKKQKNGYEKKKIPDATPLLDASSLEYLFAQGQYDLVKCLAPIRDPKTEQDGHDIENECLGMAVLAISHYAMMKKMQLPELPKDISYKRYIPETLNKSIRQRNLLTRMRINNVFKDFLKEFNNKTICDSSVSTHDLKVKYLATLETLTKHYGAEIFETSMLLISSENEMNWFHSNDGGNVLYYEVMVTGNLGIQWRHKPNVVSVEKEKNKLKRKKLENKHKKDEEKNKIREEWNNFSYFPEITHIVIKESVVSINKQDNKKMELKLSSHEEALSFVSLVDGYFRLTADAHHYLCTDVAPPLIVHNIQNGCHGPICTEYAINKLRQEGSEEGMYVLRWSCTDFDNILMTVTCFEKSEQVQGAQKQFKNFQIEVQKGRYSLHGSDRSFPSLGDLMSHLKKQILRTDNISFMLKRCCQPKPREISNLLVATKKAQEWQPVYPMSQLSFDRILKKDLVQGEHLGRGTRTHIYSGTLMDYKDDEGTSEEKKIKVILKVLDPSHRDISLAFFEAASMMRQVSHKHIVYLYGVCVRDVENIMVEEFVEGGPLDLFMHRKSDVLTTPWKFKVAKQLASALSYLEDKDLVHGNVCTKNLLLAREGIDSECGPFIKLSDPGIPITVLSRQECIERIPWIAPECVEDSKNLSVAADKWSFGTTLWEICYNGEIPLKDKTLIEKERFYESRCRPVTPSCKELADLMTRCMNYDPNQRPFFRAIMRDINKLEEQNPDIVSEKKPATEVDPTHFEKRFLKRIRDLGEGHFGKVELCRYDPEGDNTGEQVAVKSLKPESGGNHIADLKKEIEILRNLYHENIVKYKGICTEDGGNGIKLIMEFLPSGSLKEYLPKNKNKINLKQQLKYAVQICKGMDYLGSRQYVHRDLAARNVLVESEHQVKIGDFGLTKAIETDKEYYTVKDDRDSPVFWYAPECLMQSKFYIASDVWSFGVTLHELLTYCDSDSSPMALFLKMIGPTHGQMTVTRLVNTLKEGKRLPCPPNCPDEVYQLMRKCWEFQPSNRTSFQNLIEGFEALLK
JAK2/TYK2, sequence (O60674 whole entry): as the sequence (O60674 whole entry, the tested form may be a part) above
JAK2/TYK2, sequence (P29597 whole entry): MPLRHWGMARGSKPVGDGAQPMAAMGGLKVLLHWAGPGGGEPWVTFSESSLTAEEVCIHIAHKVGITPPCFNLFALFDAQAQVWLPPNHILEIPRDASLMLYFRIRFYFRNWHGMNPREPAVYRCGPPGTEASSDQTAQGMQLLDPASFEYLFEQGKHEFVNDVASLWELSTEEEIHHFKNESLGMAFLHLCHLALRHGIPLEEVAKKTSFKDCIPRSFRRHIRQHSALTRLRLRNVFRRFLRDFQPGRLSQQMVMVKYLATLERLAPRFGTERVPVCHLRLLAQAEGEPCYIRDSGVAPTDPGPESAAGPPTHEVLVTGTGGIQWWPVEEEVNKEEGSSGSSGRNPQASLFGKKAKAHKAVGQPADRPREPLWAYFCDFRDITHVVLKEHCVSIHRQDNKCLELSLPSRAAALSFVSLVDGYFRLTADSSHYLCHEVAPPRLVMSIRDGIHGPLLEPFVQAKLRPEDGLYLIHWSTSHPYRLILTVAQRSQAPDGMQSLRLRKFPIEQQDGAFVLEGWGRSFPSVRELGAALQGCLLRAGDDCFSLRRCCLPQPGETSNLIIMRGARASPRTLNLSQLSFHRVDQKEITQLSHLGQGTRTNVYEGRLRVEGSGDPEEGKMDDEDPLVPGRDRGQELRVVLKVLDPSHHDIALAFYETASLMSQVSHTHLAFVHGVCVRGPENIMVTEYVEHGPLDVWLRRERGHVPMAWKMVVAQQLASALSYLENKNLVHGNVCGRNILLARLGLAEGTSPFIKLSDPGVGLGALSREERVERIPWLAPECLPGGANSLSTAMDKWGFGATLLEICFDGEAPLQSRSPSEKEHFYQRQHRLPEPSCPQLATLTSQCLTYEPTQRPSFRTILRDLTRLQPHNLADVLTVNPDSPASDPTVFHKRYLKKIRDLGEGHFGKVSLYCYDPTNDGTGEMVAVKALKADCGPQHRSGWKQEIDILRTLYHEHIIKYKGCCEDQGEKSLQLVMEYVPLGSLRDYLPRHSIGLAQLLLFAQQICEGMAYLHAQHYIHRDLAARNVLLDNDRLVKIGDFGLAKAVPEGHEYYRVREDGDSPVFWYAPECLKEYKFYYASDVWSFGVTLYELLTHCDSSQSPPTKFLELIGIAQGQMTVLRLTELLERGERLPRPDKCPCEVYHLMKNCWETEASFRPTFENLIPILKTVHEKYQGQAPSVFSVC
Non-receptor tyrosine-protein kinase TYK2, sequence (P29597 whole entry, the tested form may be a part): as the sequence (P29597 whole entry) above
Tyrosine-protein kinase JAK1, sequence (P23458 whole entry, the tested form may be a part): as the sequence (P23458 whole entry, one chain of several) above
JAK2/JAK1, sequence (P23458 whole entry): as the sequence (P23458 whole entry, one chain of several) above
JAK2/JAK1, sequence (O60674 whole entry): as the sequence (O60674 whole entry, the tested form may be a part) above
JAK1/TYK2, sequence (P23458 whole entry): as the sequence (P23458 whole entry, one chain of several) above
JAK1/TYK2, sequence (P29597 whole entry): as the sequence (P29597 whole entry) above

Structure (SMILES) | inhibition in vivo at 40 mg/kg [1] [%] | inhibition in vivo at 5 mg/kg [2] [%] | IC50 (Cytochrome P450 3A4 [3]) [nM] | IC50 (Cytochrome P450 3A4 [4]) [nM] | IC50 [5] [nM] | further results
Cc1cnc(Nc2cccc(S(C)(=O)=O)c2)nc1Nc1ccc2oc(=O)[nH]c2c1 | 56 | – | – | – | – | –
COc1cc(Nc2ncc(C)c(Nc3ccc4oc(=O)[nH]c4c3)n2)cc(C(F)(F)F)c1 | 90 | 78 | 500 | 7200 | 1690 | –
COc1cc(Nc2ncc(C)c(Nc3ccc4oc(=O)[nH]c4c3)n2)cc(C)c1F [IFIDANCITINIB] | 92 | 43 | > 10000 | > 10000 | 490 | IC50 [6]: 923 nM; inhibition in vivo at 2.5 mg/kg [7]: 8%; clearance [8]: 47 mL/min/kg; IC50 [9]: 12 nM; IC50 (JAK2/JAK1): 417 nM; IC50 (JAK3/JAK1 [10]): 20 nM; IC50 [11]: 915 nM; IC50 (JAK3/JAK1 [12]): 451 nM; inhibition in vivo at 10 mg/kg [13]: 75%; IC50 [14]: 12 nM; IC50 (JAK3/JAK1 [15]): 20 nM; IC50 (JAK2/TYK2): 1190 nM; bioavailability [16]: 28%; IC50 (JAK1/TYK2): 8 nM; Ki (Cytochrome P450 1A2): 1000 nM; IC50 [17]: 2.1 nM; inhibition in vivo at 20 mg/kg [18]: 94%
COc1ccc(Nc2ncc(C)c(Nc3ccc4oc(=O)[nH]c4c3)n2)cc1C(F)(F)F | 32 | – | 400 | 4800 | 1980 | –
Cc1cnc(Nc2cccc(S(N)(=O)=O)c2)nc1Nc1ccc2oc(=O)[nH]c2c1 | 30 | – | – | – | – | IC50 [19]: 5000 nM
Cc1cnc(Nc2ccc(N3CCN(C)CC3)nc2)nc1Nc1ccc2oc(=O)[nH]c2c1 | 82 | 30 | 4000 | > 10000 | 84 | Ratio IC50 (Homo sapiens): 4; fraction unbound [20]: 0.16; fraction unbound [21]: 0.19; IC50 (JAK3/JAK1 [15]): 20 nM; bioavailability [16]: 4%
COc1cc(Nc2ncc(C)c(Nc3ccc4oc(=O)[nH]c4c3)n2)cc(OC)c1OC | 88 | – | 1100 | > 10000 | 81 | Ratio IC50 (Homo sapiens): 3; IC50 (JAK3/JAK1 [15]): 26 nM
Cc1cnc(Nc2cccc(NS(C)(=O)=O)c2)nc1Nc1ccc2oc(=O)[nH]c2c1 | 15 | – | – | – | – | –
COc1cc(Nc2ncc(C)c(Nc3ccc4oc(=O)[nH]c4c3)n2)cc(C)c1C | 90 | 68 | 2900 | > 10000 | 1110 | Ki (Cytochrome P450 1A2): 6000 nM
COc1cc(Nc2ncc(C)c(Nc3ccc4oc(=O)[nH]c4c3)n2)cc(C)c1OC | – | – | 2700 | > 10000 | 42 | –
Cc1cnc(Nc2ccc(F)c(C(F)(F)F)c2)nc1Nc1ccc2oc(=O)[nH]c2c1 | – | – | 700 | > 10000 | 503 | –
